Each compound was assayed against T1, human IBAT (Homo sapiens, UniProt Q12908) (assay: In vitro assay of temporarily expressed human IBAT transporter using Cos 7 cells (Test Example 8)). Conditions: Cos 7 cells temporarily expressing human IBAT; [3H] taurocholate 8 μM, 37° C., 60 minutes.
T1 construct: expressed in transfected cells; host or cells: Cos 7
T1 sequence (Q12908 1-348): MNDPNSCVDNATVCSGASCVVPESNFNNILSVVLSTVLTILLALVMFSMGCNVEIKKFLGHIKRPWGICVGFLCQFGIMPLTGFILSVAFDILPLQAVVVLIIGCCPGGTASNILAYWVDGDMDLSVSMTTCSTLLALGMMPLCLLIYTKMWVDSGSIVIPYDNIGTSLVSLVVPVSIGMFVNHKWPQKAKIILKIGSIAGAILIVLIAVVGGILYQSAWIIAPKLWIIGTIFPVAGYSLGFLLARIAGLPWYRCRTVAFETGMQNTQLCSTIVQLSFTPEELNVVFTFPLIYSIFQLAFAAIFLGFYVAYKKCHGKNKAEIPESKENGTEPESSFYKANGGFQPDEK
Type: cell-based
Protocol: In Vitro Assay of Compounds Which Inhibit Temporarily Expressed Human IBAT Transporter or Rat IBAT Transporter Using Cos 7 Cells
In this test example, the in vitro assay of the compounds which inhibit temporarily expressed human IBAT transporter or rat IBAT transporter using Cos cells was carried out according to the method described in Am. J. Physiol., 274, G157-169.
That is, […] Cos 7 were inoculated on a 24-well cell plate. One day later, 0.3 μg per well of cDNA of a human IBAT or a rat IBAT was transfected by using FuGENE6 (manufactured by ROCHE PHARMACEUTICAL CO., LTD.). For the assay, the cells cultured for one day after the transfection were used and the following procedure was followed. The cells were washed once with an assay buffer, Hank's buffer solution containing 25 mM glucose and with 10 mM HEPES (pH 7.4), and then the assay buffer was replaced by an assay buffer to which the test compound was added. After adding [^3H] taurocholate to a final concentration of 8 μM, the cells were incubated at 37° C. for 60 minutes. [^3H] taurocholate was allowed to be incorporated in Cos 7 cells through human IBAT or rat IBAT. The reaction was stopped by washing twice with a buffer prepared by adding 1 mM taurocholate to the assay buffer and lyzing the cells with 0.2M NaOH. Measurement of radioactivity was carried out by introducing the cell lyzate in 4 ml of liquid scintillation cocktail, stirring the mixture well, and then measuring the radioactivity by a scintillation counter.
`CCCCC1(CCCC)CS(=O)(=O)c2ccc(N(C)C)cc2C(c2cccc(NC(=S)Nc3cccc(C[N+]45CCC(c6ccccc6)(CC4)CC5)c3)c2)N1` (stereo not shown) [Example 4513] showed an IC50 of 92 nM. `CCCCC1(CCCC)CS(=O)(=O)c2ccc(N(C)C)cc2C(c2cccc(NC(=S)Nc3cccc(C[N+](C)(C)CCCC)c3)c2)N1` (stereo not shown) [Example 4226] showed an IC50 of 99 nM. With `CCCCC1(CCCC)CS(=O)(=O)c2ccc(N(C)C)cc2C(c2cccc(NC(=S)Nc3cccc(C[n+]4cc(C)cc(-c5ccccc5)c4)c3)c2)N1` (stereo not shown) [Example 4547] the IC50 was 72 nM. Compound `CCCCC1(CCCC)CS(=O)(=O)c2ccc(N(C)C)cc2C(c2cccc(NC(=S)Nc3ccc(C[N+]4(C)CCC(O)CC4)cc3)c2)N1` (stereo not shown) [Example 3599] has an IC50 of 54 nM. `C=CC[N+](CC)(CC)Cc1cccc(NC(=S)Nc2cccc(C3NC(CCCC)(CCCC)CS(=O)(=O)c4ccc(N(C)C)cc43)c2)c1` (stereo not shown) [Example 4247] was tested, and the IC50 was 91 nM. In the case of `C=CC[N+](C)(C)Cc1ccc(NC(=S)Nc2cccc(C3NC(CCCC)(CCCC)CS(=O)(=O)c4ccc(N(C)C)cc43)c2)cc1` (stereo not shown) [Example 3429], the IC50 is reported as 55 nM. `CCCCC1(CCCC)CS(=O)(=O)c2ccc(N(C)C)cc2C(c2cccc(NC(=S)Nc3ccc(C[n+]4cccc(-c5cccs5)c4)cc3)c2)N1` (stereo not shown) [Example 3726] gave an IC50 of 73 nM. `CCCCC1(CCCC)CS(=O)(=O)c2ccc(N(C)C)cc2C(c2cccc(NC(=S)Nc3ccc(C[n+]4ccccc4C)cc3)c2)N1` (stereo not shown) [Example 5407] was tested, and the IC50 was 52 nM. In the case of `CCCCC1(CCCC)CS(=O)(=O)c2ccc(N(C)C)cc2C(c2cccc(NC(=S)Nc3cccc(C[n+]4ccc(OC)cc4)c3)c2)N1` (stereo not shown) [Example 4551], the IC50 is reported as 76 nM. `CCCCC1(CCCC)CS(=O)(=O)c2ccc(N(C)C)cc2C(c2cccc(NC(=S)NCCCCCC[N+](C)(C)Cc3ccccc3)c2)N1` (stereo not shown) [Example 1555] gave an IC50 of 153 nM. In the case of `CCCCC1(CCCC)CS(=O)(=O)c2ccc(N(C)C)cc2C(c2cccc(NC(=S)Nc3cccc(C[N+](C)(C)C(C)c4cccc5ccccc45)c3)c2)N1` (stereo not shown) [Example 4605], the IC50 is reported as 79 nM. Work on `CCCCC1(CCCC)CS(=O)(=O)c2ccc(N(C)C)cc2C(c2cccc(NC(=S)Nc3cccc(C[N+](C)(C)CCc4ccccc4)c3)c2)N1` (stereo not shown) [Example 4259] yielded an IC50 of 67 nM. For `CCCCC1(CCCC)CS(=O)(=O)c2ccc(N(C)C)cc2C(c2cccc(NC(=S)Nc3ccc(C[n+]4cccc(F)c4)cc3)c2)N1` (stereo not shown) [Example 5416], the IC50 was 77 nM. In the case of `CCCCC1(CCCC)CS(=O)(=O)c2ccc(N(C)C)cc2C(c2cccc(NC(=S)Nc3ccc(C[N+](C)(CCC)CCC)cc3)c2)N1` (stereo not shown) [Example 3426], the IC50 is reported as 58 nM. `CCCCC1(CCCC)CS(=O)(=O)c2ccc(N(C)C)cc2C(c2cccc(NC(=S)Nc3cccc(C[N+]4(CC)CCCCC4)c3)c2)N1` (stereo not shown) [Example 4405] gave an IC50 of 62 nM. Work on `CCCCC1(CCCC)CS(=O)(=O)c2ccc(N(C)C)cc2C(c2cccc(NC(=S)Nc3cccc(C[N+](CC)(CC)CCCC)c3)c2)N1` (stereo not shown) [Example 4233] yielded an IC50 of 46 nM. `CCCCC1(CCCC)CS(=O)(=O)c2ccc(N(C)C)cc2C(c2cccc(NC(=S)Nc3ccc(C[n+]4cccc5cc(C(C)C)ccc54)cc3)c2)N1` (stereo not shown) [Example 3772] showed an IC50 of 89 nM. For `CCCCC1(CCCC)CS(=O)(=O)c2ccc(N(C)C)cc2C(c2cccc(NC(=S)Nc3ccc(C[N+](C)(C)CCOC(=O)c4ccccc4)cc3)c2)N1` (stereo not shown) [Example 3558], the IC50 was 70 nM. `CCCCC1(CCCC)CS(=O)(=O)c2ccc(N(C)C)cc2C(c2cccc(NC(=S)Nc3cccc(C[N+]45CCN(CC4)CC5)c3)c2)N1` (stereo not shown) [Example 4522] gave an IC50 of 97 nM. Work on `CCCCC1(CCCC)CS(=O)(=O)c2ccc(N(C)C)cc2C(c2cccc(NC(=S)Nc3ccc(C[n+]4ccc5c(c4)CCCC5)cc3)c2)N1` (stereo not shown) [Example 4223] yielded an IC50 of 25 nM. Work on `C#CC[N+](C)(C)Cc1ccc(NC(=S)Nc2cccc(C3NC(CCCC)(CCCC)CS(=O)(=O)c4ccc(N(C)C)cc43)c2)cc1` (stereo not shown) [Example 3433] yielded an IC50 of 55 nM. Work on `CCCCC1(CCCC)CS(=O)(=O)c2ccc(N(C)C)cc2C(c2cccc(NC(=S)Nc3ccc(C[n+]4cc(C)cc(C)c4)cc3)c2)N1` (stereo not shown) [Example 3729] yielded an IC50 of 88 nM.
